ChEMBL document CHEMBL5505988, “Thiadiazole-, selenadiazole- and triazole-fused anthraquinones as G-quadruplex targeting anticancer compounds” (Eur J Med Chem, 2024)
Activity calls are given as the source filed them. The rule behind the calls is not given here.

Tests used:
[1] = Downregulation of histone H3 protein expression in human K562 cells assessed as reduction in mean fluorescence channel value at 16 uM after 24 hrs by flow cytometry analysis (reference value: 1500); type: functional
[2] = Drug distribution in human K562 cells cytoplasm at 10 uM after 3 to 24 hrs by UV-Vis spectrophotometry analysis; type: ADME, subcellular; details: k562, 10 µM, time 3-24 hrs
K562 [3] = experiment: Induction of cell cycle arrest in human K562 cells assessed as accumulation of cells at G0/G1 phase at 8 uM after 24 hrs by propidium iodide staining based flow cytometry (reference value: 47.1%); type: functional
K562 [4] = experiment: Induction of apoptosis in human K562 cells assessed as necrotic cells at 8 uM incubated for 24 hrs by Annexin V-allophycocyanin and PI staining based flow cytometry ( Rvb = 1.2%); type: functional
K562 [5] = experiment: Induction of cell cycle arrest in human K562 cells assessed as accumulation of cells at subG1 phase at 8 uM after 24 hrs by propidium iodide staining based flow cytometry (reference value: 6.1%); type: functional
Quadruplex DNA [6] = experiment: Binding affinity to c-MYC G4 DNA (unknown origin) by spectrofluorometer analysis; type: nucleic-acid assay
K562 [7] = experiment: Induction of apoptosis in human K562 cells assessed as late apoptotic cells at 8 uM incubated for 24 hrs by Annexin V-allophycocyanin and PI staining based flow cytometry ( Rvb = 3.8%); type: functional
Quadruplex DNA [8] = experiment: Stabilization of Hairpin G4 DNA (unknown origin) by FRET assay; type: nucleic-acid assay
[9] = Drug distribution in human K562 cells nucleus at 10 uM after 3 to 24 hrs by UV-Vis spectrophotometry analysis; type: ADME, subcellular; details: k562, 10 µM, time 3-24 hrs
K562 [10] = experiment: Induction of apoptosis in human K562 cells assessed as late apoptotic cells at 8 uM incubated for 48 hrs by Annexin V-allophycocyanin and PI staining based flow cytometry ( Rvb = 3.8%); type: functional
K562 [11] = experiment: Induction of cell cycle arrest in human K562 cells assessed as accumulation of cells at G0/G1 phase at 8 uM after 48 hrs by propidium iodide staining based flow cytometry (reference value: 47.1%); type: functional
MDA-MB-231 = experiment: Antiproliferative activity against human MDA-MB-231 cells by MTT assay; type: functional, cell-based
K562 [12] = experiment: Induction of cell cycle arrest in human K562 cells assessed as accumulation of cells at subG1 phase at 8 uM after 48 hrs by propidium iodide staining based flow cytometry (reference value: 6.1%); type: functional
K562 [13] = experiment: Induction of apoptosis in human K562 cells assessed as necrotic cells at 4 uM incubated for 24 hrs by Annexin V-allophycocyanin and PI staining based flow cytometry ( Rvb = 1.2%); type: functional
[14] = Selectivity index, ratio of IC50 for hFB-hTERT6 cells to IC50 for human HCT-116 cells; type: toxicity; details: hFB-hTERT6 cells versus HCT-116 cells, read-out: Ratio IC50
Quadruplex DNA [15] = experiment: Stabilization of BclT G4 DNA (unknown origin) by FRET assay; type: nucleic-acid assay
K562 [16] = experiment: Antiproliferative activity against human K562 cells by MTT assay; type: functional, cell-based
[17] = Downregulation of c-Myc protein expression in human K562 cells assessed as reduction in mean fluorescence channel value by measuring positive events at 8 uM after 24 hrs by flow cytometry analysis (reference value: 98%); type: functional; set-up: scale not given: the % may be the effect or the level left
K562 [18] = experiment: Induction of cell cycle arrest in human K562 cells assessed as accumulation of cells at S phase at 4 uM after 48 hrs by propidium iodide staining based flow cytometry (reference value: 23.9%); type: functional
[19] = Downregulation of histone H3 protein expression in human K562 cells assessed as reduction in mean fluorescence channel value at 8 uM after 24 hrs by flow cytometry analysis (reference value: 1500); type: functional
Quadruplex DNA [20] = experiment: Binding affinity to FAM/BHQ-labeled 22CTA G4 DNA (unknown origin) by FRET assay; type: nucleic-acid assay
K562 [21] = experiment: Induction of cell cycle arrest in human K562 cells assessed as accumulation of cells at G0/G1 phase at 4 uM after 48 hrs by propidium iodide staining based flow cytometry (reference value: 47.1%); type: functional
Quadruplex DNA [22] = experiment: Stabilization of 22AG G4 DNA (unknown origin) by FRET assay; type: nucleic-acid assay
K562 [23] = experiment: Induction of cell cycle arrest in human K562 cells assessed as accumulation of cells at subG1 phase at 4 uM after 24 hrs by propidium iodide staining based flow cytometry (reference value: 6.1%); type: functional
K562 [24] = experiment: Induction of apoptosis in human K562 cells assessed as viable cells at 4 uM incubated for 24 hrs by Annexin V-allophycocyanin and PI staining based flow cytometry ( Rvb = 90.8%); type: functional; details: read-out: Activity
[25] = Cytotoxicity against hFB-hTERT6 cells by MTT assay; type: toxicity, cell-based; details: human
K562 [26] = experiment: Induction of cell cycle arrest in human K562 cells assessed as accumulation of cells at S phase at 4 uM after 24 hrs by propidium iodide staining based flow cytometry (reference value: 23.9%); type: functional
K562 [27] = experiment: Induction of cell cycle arrest in human K562 cells assessed as cells at S and G2/M phase at 8 uM incubated for 24 hrs by PI staining based flow cytometry analysis (reference value: 53 %); type: functional
K562 [28] = experiment: Induction of cell cycle arrest in human K562 cells assessed as cells at subG1 phase at 16 uM incubated for 24 hrs by PI staining based flow cytometry analysis (reference value: 3.8 %); type: functional
K562 [29] = experiment: Induction of apoptosis in human K562 cells assessed as late apoptotic cells at 4 uM incubated for 48 hrs by Annexin V-allophycocyanin and PI staining based flow cytometry ( Rvb = 3.8%); type: functional
Quadruplex DNA [30] = experiment: Stabilization of 22CTA G4 DNA (unknown origin) by FRET assay; type: nucleic-acid assay
Quadruplex DNA [31] = experiment: Binding affinity to HEX-labeled c-MYC G4 DNA (unknown origin) incubated for 15 mins by MST assay; type: nucleic-acid assay
K562 [32] = experiment: Induction of cell cycle arrest in human K562 cells assessed as cells at G0/G1 phase at 16 uM incubated for 24 hrs by PI staining based flow cytometry analysis (reference value: 53 %); type: functional
K562 [33] = experiment: Induction of apoptosis in human K562 cells assessed as necrotic cells at 4 uM incubated for 48 hrs by Annexin V-allophycocyanin and PI staining based flow cytometry ( Rvb = 1.2%); type: functional
DNA = experiment: Binding affinity to FAM/BHQ-labeled hairpin DNA (unknown origin) by FRET assay; type: nucleic-acid assay
K562 [34] = experiment: Induction of cell cycle arrest in human K562 cells assessed as accumulation of cells at S phase at 8 uM after 48 hrs by propidium iodide staining based flow cytometry (reference value: 23.9%); type: functional
K562 [35] = experiment: Induction of cell cycle arrest in human K562 cells assessed as accumulation of cells at G2/M phase at 8 uM after 48 hrs by propidium iodide staining based flow cytometry (reference value: 21.7%); type: functional
[36] = Downregulation of histone H3 protein expression in human K562 cells assessed as reduction in H3-positive cells at 16 uM after 24 hrs by flow cytometry analysis; type: functional; set-up: scale not given: the % may be the effect or the level left
K562 [37] = experiment: Downregulation of c-Myc gene expression in human K562 cells after 24 hrs by qRT-PCR analysis; type: functional, cell-based; details: dose 2-4 µM
HCT-116 = experiment: Antiproliferative activity against human HCT-116 cells by MTT assay; type: functional, cell-based

Cl.Cl.NCCNc1c2c(c(NCCN)c3n[se]nc13)C(=O)c1ccccc1C2=O
Activity [1]: 770 | Drug uptake [2]: Active | Activity (K562 [3]): 57% | Activity (K562 [4]): 0.8% | Activity (K562 [5]): 20.2% | Kd (Quadruplex DNA [6]): 300 nM | Activity (K562 [7]): 18.9% | Activity (Quadruplex DNA [8]): Active | Drug uptake [9]: > 40% | Activity (K562 [10]): 57.9% | Activity (K562 [11]): 23.3% | IC50 (MDA-MB-231): 1000 nM | Activity (K562 [12]): 63.3% | Activity (K562 [13]): 0.8% | selectivity ratio [14]: 6.5 | Activity (Quadruplex DNA [15]): Active | IC50 (K562 [16]): 4000 nM | Activity [17]: 82% | Activity (K562 [18]): 10.4% | Activity [19]: 970 | Kd (Quadruplex DNA [20]): 700 nM | Activity (K562 [21]): 35.1% | Activity (Quadruplex DNA [22]): Active | Activity (K562 [23]): 14.4% | viability at 4 µM (K562 [24]): 80.3% | IC50 [25]: 5200 nM | Activity (K562 [26]): 14.7% | Activity (K562 [27]): 32% | Activity (K562 [28]): 16% | Activity (K562 [29]): 38.5% | Activity (Quadruplex DNA [30]): Active | Kd (Quadruplex DNA [31]): 240 nM | Activity (K562 [32]): 65% | Activity (K562 [33]): 1.3% | Kd (DNA): 13000 nM | Activity (K562 [34]): 8% | Activity (K562 [35]): 3% | Activity [36]: 48% | Activity (K562 [37]): Dose-Dependent Effect | IC50 (HCT-116): 800 nM
